Data: article PMC4729137, “Functional analysis of androgen receptor mutations that confer anti-androgen resistance identified in circulating cell-free DNA from prostate cancer patients” (Genome Biology, 2016)

Target: T1, H875Q-AR (Homo sapiens, UniProt P10275, H875Q)
T1 sequence (P10275 1-920 H875Q): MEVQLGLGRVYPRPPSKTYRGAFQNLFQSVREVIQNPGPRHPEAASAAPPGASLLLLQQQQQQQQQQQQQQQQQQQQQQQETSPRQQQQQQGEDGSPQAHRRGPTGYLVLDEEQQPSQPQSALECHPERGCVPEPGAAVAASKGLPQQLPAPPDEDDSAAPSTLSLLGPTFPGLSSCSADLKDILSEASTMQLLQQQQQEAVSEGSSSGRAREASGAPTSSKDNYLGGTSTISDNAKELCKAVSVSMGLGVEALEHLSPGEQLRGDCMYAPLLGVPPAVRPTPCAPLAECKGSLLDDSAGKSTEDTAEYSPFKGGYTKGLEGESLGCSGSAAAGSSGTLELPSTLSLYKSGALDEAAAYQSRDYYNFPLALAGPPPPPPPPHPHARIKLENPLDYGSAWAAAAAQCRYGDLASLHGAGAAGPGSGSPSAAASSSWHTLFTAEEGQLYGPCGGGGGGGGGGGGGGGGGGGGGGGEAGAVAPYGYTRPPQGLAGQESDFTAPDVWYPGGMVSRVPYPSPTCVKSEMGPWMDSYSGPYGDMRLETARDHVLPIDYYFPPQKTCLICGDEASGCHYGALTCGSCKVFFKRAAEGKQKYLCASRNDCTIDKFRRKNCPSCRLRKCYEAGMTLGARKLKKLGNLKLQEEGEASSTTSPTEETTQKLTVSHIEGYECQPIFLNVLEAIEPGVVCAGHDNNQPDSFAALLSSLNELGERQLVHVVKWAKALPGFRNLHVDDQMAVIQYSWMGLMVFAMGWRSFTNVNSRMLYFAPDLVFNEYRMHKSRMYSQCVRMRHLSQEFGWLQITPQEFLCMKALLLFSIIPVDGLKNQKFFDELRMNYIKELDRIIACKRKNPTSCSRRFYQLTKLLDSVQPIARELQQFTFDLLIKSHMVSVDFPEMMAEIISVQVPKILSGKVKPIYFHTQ
Test: cell-based

For C[C@]12CCC(=O)C=C1CC[C@@H]1[C@@H]2[C@@H](O)C[C@@]2(C)[C@H]1CC[C@]2(O)C(=O)CO [hydrocortisone], the EC50 was over 0.5 µM.
